Results as given in US10246439B2, “Apoptosis signal-regulating kinase 1 inhibitors and methods of use thereof” (ENANTA PHARMACEUTICALS, INC., priority 2017, dated 2019).

Biological target: T1, ASK1 (Homo sapiens, UniProt Q99683)
T1 construct: purchased Thermofisher PV4011
T1 sequence (Q99683 1-1374): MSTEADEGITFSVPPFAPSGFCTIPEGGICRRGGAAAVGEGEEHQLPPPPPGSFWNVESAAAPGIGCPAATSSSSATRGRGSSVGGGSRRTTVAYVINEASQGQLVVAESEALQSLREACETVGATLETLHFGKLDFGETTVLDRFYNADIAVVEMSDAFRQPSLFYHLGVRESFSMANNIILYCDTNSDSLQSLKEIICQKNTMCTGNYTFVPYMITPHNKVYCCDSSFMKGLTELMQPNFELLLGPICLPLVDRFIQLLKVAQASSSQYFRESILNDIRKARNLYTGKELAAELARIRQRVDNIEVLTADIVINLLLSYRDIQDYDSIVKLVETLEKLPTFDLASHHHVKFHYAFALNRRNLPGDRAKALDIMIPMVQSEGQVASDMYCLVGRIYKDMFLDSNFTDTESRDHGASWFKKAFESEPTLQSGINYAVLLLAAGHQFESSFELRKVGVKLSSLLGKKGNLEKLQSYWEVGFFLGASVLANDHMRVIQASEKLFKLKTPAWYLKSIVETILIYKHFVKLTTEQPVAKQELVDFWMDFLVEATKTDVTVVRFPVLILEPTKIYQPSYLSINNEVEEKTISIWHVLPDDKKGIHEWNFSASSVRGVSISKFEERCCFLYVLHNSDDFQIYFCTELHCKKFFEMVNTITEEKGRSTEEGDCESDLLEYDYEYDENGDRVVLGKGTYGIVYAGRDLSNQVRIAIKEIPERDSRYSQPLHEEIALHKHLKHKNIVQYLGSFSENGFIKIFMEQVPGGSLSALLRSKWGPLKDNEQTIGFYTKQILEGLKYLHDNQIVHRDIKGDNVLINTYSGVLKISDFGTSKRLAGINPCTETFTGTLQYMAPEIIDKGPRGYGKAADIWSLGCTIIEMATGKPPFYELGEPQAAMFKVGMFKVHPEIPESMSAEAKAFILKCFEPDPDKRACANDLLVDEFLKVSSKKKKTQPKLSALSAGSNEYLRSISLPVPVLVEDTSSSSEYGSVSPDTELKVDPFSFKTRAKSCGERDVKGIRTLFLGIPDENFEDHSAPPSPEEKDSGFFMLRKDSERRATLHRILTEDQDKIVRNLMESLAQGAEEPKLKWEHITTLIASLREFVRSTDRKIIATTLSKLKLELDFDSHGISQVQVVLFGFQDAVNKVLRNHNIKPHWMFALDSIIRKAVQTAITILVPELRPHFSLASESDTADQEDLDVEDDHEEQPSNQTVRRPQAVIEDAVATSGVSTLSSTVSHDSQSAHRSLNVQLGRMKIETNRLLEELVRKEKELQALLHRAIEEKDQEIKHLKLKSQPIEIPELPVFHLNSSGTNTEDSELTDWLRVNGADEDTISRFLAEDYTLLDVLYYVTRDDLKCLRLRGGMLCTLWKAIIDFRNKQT
Assay: HTRF KinEASE-STK TR-FRET kinase assay, inhibition of ASK1
Format: biochemical
Conditions: 5 nM ASK1, 1 uM STK3 peptide substrate, 100 uM ATP
Description: ASK1 was purchased from Thermofisher (Catalogue # PV4011), ATP was purchased from Sigma (Catalogue # A7699), HTRF® KinEASE™ Assay System was obtained from Cisbio (Bedford, Mass.). ½ Area plate was purchased from Perkin Elmer (Catalogue # #6005560). HTRF® KinEASE™-STK is a generic method for measuring serine/threonine kinase activities using a time-resolved fluorescence resonance energy transfer (TR-FRET) immunoassay. The IC50 value for each compound was determined in the presence of compound (various concentration from 0 to 10 μM) and a fixed amount of ATP and peptide substrates. The test compound, 1 uM STK3 peptide substrate, and 5 nM of ASK1 kinase are incubated with kinase reaction buffer containing 50 mM HEPES pH 7.5, 0.01% BRIJ-35, 10 mM MgCl2, and 1 mM EGTA for 30 minutes. 100 uM ATP is added to start kinase reaction and incubated for 3 hours. The STK3-antibody labeled with Eu^3+-Cryptate and 125 nM streptavidin-XL665 are mixed in a single addition with stop reagents provided by the Cisbio kit used to stop the kinase reaction. Fluorescence is detected using an Envision Multilabeled 2014 reader from PerkinElmer. The Fluorescence is measured at 615 nm (Cryptate) and 665 nm (XL665) and a ratio of 665 nm/615 nm is calculated for each well. The resulting TR-FRET is proportional to the phosphorylation level. Staurosporine was used as the positive control. IC50 was determined by XLfit 5.3.

SMILES	IC50
CC(C)n1cnnc1-c1cccc(NC(=O)c2ccc3ncsc3c2)n1 [Example 2, N-(6-(4-isopropyl-4H-1,2,4-triazol-3-yl)pyridin-2-yl)benzo[d]thiazole-6-carboxamide]	0.1 to 1 µM
CC(C)n1nnnc1-c1cccc(NC(=O)c2cc3sc(N4CCN(C(C)(C)C)CC4)nc3cn2)n1 [Example 71]	0.1 to 1 µM
CCN(CC)c1nc2cc(F)c(C(=O)Nc3cccc(-c4nnnn4C(C)C)n3)cc2s1 [Example 35]	> 1 µM
CC(C)n1nnnc1-c1cccc(NC(=O)c2cc3sc(NC4CC4)nc3cc2F)n1 [Example 38]	> 1 µM
CC(C)n1nnnc1-c1cccc(NC(=O)c2cc3sc(C4CCC4)nc3cc2F)n1 [Example 36]	0.1 to 1 µM
CC(C)n1nnnc1-c1cccc(NC(=O)c2cc3sc(N(C)C4CCCCC4)nc3cc2F)n1 [Example 44]	> 1 µM
CC(C)n1nnnc1-c1cccc(NC(=O)c2cc3sc(N4CCCCC4)nc3cn2)n1 [Example 62]	> 1 µM
CC(C)n1cnnc1-c1cccc(NC(=O)c2ccc3nc(N4CCC(C)(C)CC4)sc3c2)n1 [Example 54]	> 1 µM
CC(C)n1nnnc1-c1cccc(NC(=O)c2cc3sc(N4CCC4)nc3cc2F)n1 [Example 45]	> 1 µM
CC(C)n1cnnc1-c1cccc(NC(=O)c2ccc3nc(N4CCC(C(C)(C)C)CC4)sc3c2)n1 [Example 25]	0.1 to 1 µM
CC(C)n1nnnc1-c1cccc(NC(=O)c2cc3sc(N4CCN(C5CC5)CC4)nc3cc2F)n1 [Example 42]	> 1 µM
CC(C)n1nnnc1-c1cccc(NC(=O)c2cc3sc(N4CCCC4)nc3cc2F)n1 [Example 47]	> 1 µM
CC(C)n1nnnc1-c1cccc(NC(=O)c2cc3sc(C4CCC4)nc3cn2)n1 [Example 69]	> 1 µM
CC(C)n1nnnc1-c1cccc(NC(=O)c2cc3sc(N4CCN(C(C)(C)C)CC4)nc3cc2F)n1 [Example 3, 2-(4-(tert-butyl)piperazin-1-yl)-5-fluoro-N-(6-(1-isopropyl-1H-tetrazol-5-yl)pyridin-2-yl)benzo[d]thiazole-6-carboxamide]	> 1 µM
CC(C)Nc1nc2ccc(C(=O)Nc3cccc(-c4nncn4C(C)C)n3)cc2s1 [Example 56]	0.1 to 1 µM
CC(C)n1cnnc1-c1cccc(NC(=O)c2ccc3nc(N4CCCC4)sc3c2)n1 [Example 20]	0.1 to 1 µM
CC(C)n1cnnc1-c1cccc(NC(=O)c2cc3sc(C4CCC4)nc3cc2F)n1 [Example 37]	0.01 to 0.1 µM
CC(C)n1nnnc1-c1cccc(NC(=O)c2cc3sc(N(C)C4CC4)nc3cc2F)n1 [Example 32]	> 1 µM
CC(C)n1nnnc1-c1cccc(NC(=O)c2cc3sc(N4CCCCC4)nc3cc2F)n1 [Example 4]	> 1 µM
CC(C)n1nnnc1-c1cccc(NC(=O)c2cc3sc(N4CCOCC4)nc3cn2)n1 [Example 72]	> 1 µM
CCCCNc1nc2cc(F)c(C(=O)Nc3cccc(-c4nnnn4C(C)C)n3)cc2s1 [Example 40]	> 1 µM
CCCCN(C)c1nc2cc(F)c(C(=O)Nc3cccc(-c4nnnn4C(C)C)n3)cc2s1 [Example 43]	> 1 µM
CNc1nc2cc(F)c(C(=O)Nc3cccc(-c4nnnn4C(C)C)n3)cc2s1 [Example 33]	> 1 µM
CC(C)n1cnnc1-c1cccc(NC(=O)c2ccc3nc(N(C)C)sc3c2)n1 [Example 23]	0.01 to 0.1 µM
CC(C)n1cnnc1-c1cccc(NC(=O)c2ccc3nc(N4CC5CCC(C4)O5)sc3c2)n1 [Example 17]	0.01 to 0.1 µM

The remaining lines, values ahead:

IC50	SMILES
0.01 to 0.1 µM	CC(C)n1cnnc1-c1cccc(NC(=O)c2cc3sc(N(C)C)nc3cn2)n1 [Example 64]
0.01 to 0.1 µM	CCN(CC)c1nc2ccc(C(=O)Nc3cccc(-c4nncn4C(C)C)n3)cc2s1 [Example 57]
0.001 to 0.01 µM	CCCCNc1nc2cc(F)c(C(=O)Nc3cccc(-c4nncn4C(C)C)n3)cc2s1 [Example 27]
0.001 to 0.01 µM	CC(C)n1cnnc1-c1cccc(NC(=O)c2cc3sc(N(C)C)nc3cc2F)n1 [Example 14]
0.001 to 0.01 µM	CCN(CC)c1nc2cc(F)c(C(=O)Nc3cccc(-c4nncn4C(C)C)n3)cc2s1 [Example 13]
0.01 to 0.1 µM	CC(C)n1cnnc1-c1cccc(NC(=O)c2ccc3nc(N4CCC(F)(F)CC4)sc3c2)n1 [Example 19]
0.01 to 0.1 µM	CC(C)n1cnnc1-c1cccc(NC(=O)c2cc3sc(NCC4CC4)nc3cc2F)n1 [Example 48]
0.01 to 0.1 µM	CC(C)n1cnnc1-c1cccc(NC(=O)c2cc3sc(C4CCC4)nc3cn2)n1 [Example 67]
0.001 to 0.01 µM	CC(C)n1cnnc1-c1cccc(NC(=O)c2cc3sc(N4CCCCC4)nc3cn2)n1 [Example 66, N-(6-(4-isopropyl-4H-1,2,4-triazol-3-yl)pyridin-2-yl)-2-(piperidin-1-yl)thiazolo[4,5-c]pyridine-6-carboxamide]
0.01 to 0.1 µM	CC(C)N(c1nc2ccc(C(=O)Nc3cccc(-c4nncn4C(C)C)n3)cc2s1)C(C)C [Example 53, 2-(diisopropylamino)-N-(6-(4-isopropyl-4H-1,2,4-triazol-3-yl)pyridin-2-yl)benzo[d]thiazole-6-carboxamide]
0.001 to 0.01 µM	CC(C)n1cnnc1-c1cccc(NC(=O)c2cc3sc(N(C)C4CC4)nc3cc2F)n1 [Example 10]
0.01 to 0.1 µM	CC(C)n1cnnc1-c1cccc(NC(=O)c2ccc3nc(NC4CCCCC4)sc3c2)n1 [Example 24]
0.01 to 0.1 µM	CC(C)n1cnnc1-c1cccc(NC(=O)c2cc3sc(C4CC4)nc3cc2F)n1 [Example 7, 2-cyclopropyl-5-fluoro-N-(6-(4-isopropyl-4H-1,2,4-triazol-3-yl)pyridin-2-yl)benzo[d]thiazole-6-carboxamide]
0.01 to 0.1 µM	CC(C)n1cnnc1-c1cccc(NC(=O)c2cc3sc(C4CC4)nc3cn2)n1 [Example 63, 2-cyclopropyl-N-(6-(4-isopropyl-4H-1,2,4-triazol-3-yl)pyridin-2-yl)thiazolo[4,5-c]pyridine-6-carboxamide]
0.001 to 0.01 µM	CC(C)n1cnnc1-c1cccc(NC(=O)c2cc3sc(N(C)CC4CC4)nc3cc2F)n1 [Example 11]
0.001 to 0.01 µM	CC(C)n1cnnc1-c1cccc(NC(=O)c2cc3sc(NC4CC4)nc3cc2F)n1 [Example 6, 2-(cyclopropylamino)-5-fluoro-N-(6-(4-isopropyl-4H-1,2,4-triazol-3-yl)pyridin-2-yl)benzo[d]thiazole-6-carboxamide]
0.01 to 0.1 µM	CC(C)n1cnnc1-c1cccc(NC(=O)c2cc3sc(N4CCN(C(C)(C)C)CC4)nc3cc2F)n1 [Example 15]
0.001 to 0.01 µM	CC(C)n1cnnc1-c1cccc(NC(=O)c2cc3sc(N4CCCCC4)nc3cc2F)n1 [Example 30, 5-fluoro-N-(6-(4-isopropyl-4H-1,2,4-triazol-3-yl)pyridin-2-yl)-2-(piperidin-1-yl)benzo[d]thiazole-6-carboxamide]
0.01 to 0.1 µM	CC(C)n1cnnc1-c1cccc(NC(=O)c2ccc3nc(N4CCCCC4)sc3c2)n1 [Example 60, N-(6-(4-isopropyl-4H-1,2,4-triazol-3-yl)pyridin-2-yl)-2-(piperidin-1-yl)benzo[d]thiazole-6-carboxamide]
0.001 to 0.01 µM	CC(C)n1cnnc1-c1cccc(NC(=O)c2cc3sc(N4CCOCC4)nc3cn2)n1 [Example 65]
0.01 to 0.1 µM	CC(C)n1cnnc1-c1cccc(NC(=O)c2ccc3nc(N4CC5CC5C4)sc3c2)n1 (stereo not shown) [Example 52]
